In US9435813B2, “Biomarkers of hemorrhagic shock” (The General Hospital Corporation, priority 2010, dated 2016):
“Also recorded” adds a separate entry of the source.

What was measured:
[1] = tested on: 22.7 kDa serum protein; test: SELDI-TOF MS serum protein profiling in lethal hemorrhagic shock model; format: in vivo; details: rat, 60% blood loss, VPA 300 mg/kg via femoral vein, 24 hours after treatment
Description: (§1) An animal model of HS was used. Male Wistar-Kyoto rats (254.12±2.71 grams, Harlan, Indianapolis, Ind.) were used in the lethal model of hemorrhagic shock (Shults et al., J Trauma 2008; 64(3):629-638). Each animal's estimated blood volume was calculated using the formula: [estimated blood volume (mL)=weight (g)×0.06 (mL/g)+0.77]. About 1.3 mL of blood was manually drawn at the beginning and end of hemorrhage for analysis (included in the total hemorrhage calculation). The animals were hemorrhaged (40% of their calculated total blood volume) via a femoral arterial catheter over 10 minutes, followed by a 20% blood volume venous bleed over the next 50 minutes. Bleeding was performed using Kent Scientific adjustable pumps (Kent Scientific Corporation, N.J.). VPA (300 mg/kg) was administered via a femoral vein catheter after completion of hemorrhage. Blood pressure was monitored continuously during the experiment. The mean arterial pressure (MAP) in animals that were subjected to hemorrhage dropped sharply after bleeding to approximately 20 mm Hg. […]
ProteinChip profiling was performed on CM10 ProteinChip arrays (Ciphergen Biosystems, Fremont Calif.), as recommended by the manufacturer. […] The arrays were then inserted into a ProteinChip (Enterprise edition) TOF-MS and read at an optimized laser setting of 2000 nJ-5000 nJ. […]

[2] = tested on: claudin-3; test: iTRAQ quantification of claudin-3 peptide in serum after hemorrhagic shock; format: in vivo; details: rat serum, 24 hours post-VPA 300 mg/kg; BL to HS ratio 0.323
Description: as §1
Immunodepletion of serum abundant proteins was performed as follows. […] Column performance was monitored by sodium dodecyl sulphate-polyacrylamide gel electrophoresis (SDS-PAGE) followed by Coomassie Blue staining (BioBlue, BioRad). […]

[3] = tested on: claudin-3; test: Western blot of serum claudin-3 after hemorrhagic shock; format: in vivo; details: rat serum, 1 hour following VPA treatment; two bands seen in HS 1 hour group
Description: An animal model of HS was used. Male Wistar-Kyoto rats (254.12±2.71 grams, Harlan, Indianapolis, Ind.) were used in the lethal model of hemorrhagic shock (Shults et al., J Trauma 2008; 64(3):629-638). Each animal's estimated blood volume was calculated using the formula: [estimated blood volume (mL)=weight (g)×0.06 (mL/g)+0.77]. About 1.3 mL of blood was manually drawn at the beginning and end of hemorrhage for analysis (included in the total hemorrhage calculation). The animals were hemorrhaged (40% of their calculated total blood volume) via a femoral arterial catheter over 10 minutes, followed by a 20% blood volume venous bleed over the next 50 minutes. Bleeding was performed using Kent Scientific adjustable pumps (Kent Scientific Corporation, N.J.). VPA (300 mg/kg) was administered via a femoral vein catheter after completion of hemorrhage. Blood pressure was monitored continuously during the experiment. […]
To assess whether claudin-3 is a potential biomarker, independent serum samples were taken of sham (no hemorrhage and no treatment), HS 1 hour (1 hour following hemorrhagic shock), and VPA 1 hour (1 hour following VPA treatment) from individual rats and the level of the candidate biomarker was determined by Western blot with anti-claudin-3 antibody. […]

[4] = tested on: claudin-3; test: Western blot of intestinal claudin-3 protein after hemorrhagic shock; format: in vivo; details: rat intestine, 1, 6, and 24 hours after VPA treatment
Description: as §1, with “experiment.” for “experiment. The mean arterial pressure (MAP) in animals that were subjected to hemorrhage dropped sharply after bleeding to approximately 20 mm Hg.”
Claudin-3 is a TJ protein that has important roles in establishing epithelial and endothelial barriers. To find out whether HS and VPA treatment affect claudin-3 protein in TJ of epithelial cells, protein expression was analyzed in intestinal tissue obtained from sham, HS 1 hour (1 hour after hemorrhagic shock), and VPA-treated animals (1 hour, 6 hours, and 24 hours after treatment). […]

[5] = tested on: claudin-3 mRNA; test: RT-PCR of intestinal claudin-3 mRNA after hemorrhagic shock; format: in vivo; details: rat intestine, 1, 6 and 24 hours
Description: To assess whether gene expression of claudin-3 responds to HS and VPA treatment, the mRNA expression of rat intestines among the groups of sham, HS and VPA treatment was compared at 1, 6 and 24 hours using RT-PCR methods.

[6] = tested on: hemorrhagic shock; test: Survival in lethal model of hemorrhagic shock; format: in vivo; details: rat, HS 60% blood loss, VPA 300 mg/kg; untreated animals did not survive
Description: as §1
Male Wistar-Kyoto rats underwent HS (60% blood loss) followed by treatment with or without VPA (300 mg/kg). Serum samples were obtained at baseline (BL), end of hemorrhage (EH), and after VPA treatment (VPA), and subjected to iTRAQ and analyzed by liquid chromatography-tandem mass spectrometry (LC-MS/MS). […]

[7] = tested on: CINC-1; test: Serum CINC-1, multiplex electrochemiluminescence assay, sub-lethal hemorrhagic shock; format: in vivo; details: rat, 40% blood volume hemorrhage, VPA 300 mg/kg IV vs vehicle
Description: (§2) Anesthetized Wistar-Kyoto rats (250-300 g) underwent 40% blood volume hemorrhage over 10 minutes followed by 30 minutes of un-resuscitated shock and were treated with 1) VPA 300 mg/kg or 2) vehicle control. Blood samples were obtained at baseline, following shock, and prior to sacrifice (1 hour, 4 hours, and 20 hours; n=3-4/time point/group). Serum samples were screened for possible biomarkers using a multiplex electrochemiluminescence detection assay, and results were confirmed using ELISA. Additionally, lung tissue lysate was examined for chemokine and myeloperoxidase (MPO) levels as markers for neutrophil infiltration and ALI. Additionally, lung CINC-1 (a chemokine belonging to the IL-8 family that promotes neutrophil chemotaxis) mRNA levels were measured by real-time PCR.
Animals were hemorrhaged 40% of their total blood volume to induce sub-lethal HS, and were sacrificed at 1, 4, and 20 hours following hemorrhage and treatment. This degree of blood loss was selected to allow 100% of animals in all groups to survive until the designated time of sacrifice. Selected laboratory values were measured, and were indicative of moderate HS (mean lactate 0.6 mmol/L at baseline, 4.3 mmol/L after hemorrhage; mean baseline hemoglobin 12.0 g/dL at baseline, 9.6 g/dL after hemorrhage). […]

[8] = tested on: CINC-1; test: Serum CINC-1 ELISA, sub-lethal hemorrhagic shock; format: in vivo; details: rat, 40% blood volume hemorrhage, VPA 300 mg/kg IV vs vehicle, 4 hours, p<0.05
Description: as §2
(§3) Animals were hemorrhaged 40% of their total blood volume to induce sub-lethal HS, and were sacrificed at 1, 4, and 20 hours following hemorrhage and treatment. This degree of blood loss was selected to allow 100% of animals in all groups to survive until the designated time of sacrifice. Selected laboratory values were measured, and were indicative of moderate HS (mean lactate 0.6 mmol/L at baseline, 4.3 mmol/L after hemorrhage; mean baseline hemoglobin 12.0 g/dL at baseline, 9.6 g/dL after hemorrhage).
Conventional ELISA was used to confirm the data obtained using the multiplex electrochemiluminescence assay.

[9] = tested on: CINC-1; test: Lung tissue CINC-1 ELISA, sub-lethal hemorrhagic shock; format: in vivo; details: rat, 40% blood volume hemorrhage, VPA 300 mg/kg IV vs vehicle, 20 hour time point, p=0.17
Description: as §2, §3
ELISA was used to measure CINC-1 levels in lung whole tissue extract (n=3-4/time point/group).

[10] = tested on: myeloperoxidase (MPO); test: Lung tissue myeloperoxidase (MPO) level, sub-lethal hemorrhagic shock; format: in vivo; details: rat, 40% blood volume hemorrhage, VPA 300 mg/kg IV vs vehicle, 20 hour time point, p<0.05
Description: as §2
(§4) Animals were hemorrhaged 40% of their total blood volume to induce sub-lethal HS, and were sacrificed at 1, 4, and 20 hours following hemorrhage and treatment. […] Selected laboratory values were measured, and were indicative of moderate HS (mean lactate 0.6 mmol/L at baseline, 4.3 mmol/L after hemorrhage; mean baseline hemoglobin 12.0 g/dL at baseline, 9.6 g/dL after hemorrhage).
Myeloperoxidase (MPO) levels were measured in lung whole tissue extract as a marker for neutrophil infiltration (n=3-4/time point/group).

[11] = tested on: CINC-1 mRNA; test: Lung CINC-1 mRNA by real-time PCR, sub-lethal hemorrhagic shock; format: in vivo; details: rat, 40% blood volume hemorrhage, VPA 300 mg/kg IV vs vehicle, 1, 4 and 20 hours
Description: as §2, §4
To rule out possibility that an increase of CINC-1 protein in lung results from induction of the gene expression, lung tissue was assessed for CINC-1 mRNA levels (n=3-4/time point/group). […]

[12] = tested on: acute lung injury; test: Acute lung injury (ALI) following hemorrhagic shock; format: in vivo; details: rat, 40% blood volume hemorrhage, VPA 300 mg/kg
[13] = tested on: hemorrhagic shock; details: rats, literature (Shults et al. 2008; Li et al. 2008; WO 2007117272); cited from earlier work

## CCCC(CCC)C(=O)O [VPA, Valproic acid]
[1]
  serum level of 22.7 kDa protein (SELDI-TOF MS) versus HS: down-regulated
[2]
  ratio of VPA to HS, claudin-3 peptide isobaric tag signal in serum: 0.425
[3]
  serum claudin-3 by Western blot: no claudin-3 was detected
[4]
  intestinal claudin-3 protein level by Western blot: significantly attenuated the HS-induced reduction of claudin-3
[5]
  intestinal claudin-3 mRNA expression: did not significantly change
[6]
  survival after hemorrhagic shock: significantly improved survival; also recorded: survived
[7]
  HS-induced rise of serum CINC-1 (multiplex electrochemiluminescence assay): appeared to be attenuated
[8]
  HS-induced increase of circulating CINC-1 (ELISA): significantly attenuated this effect
[9]
  effects on lung CINC-1 levels: not statistically significant
[10]
  HS-induced increase of lung MPO levels: significantly attenuated this effect
[11]
  lung CINC-1 mRNA levels: no significant changes between groups
[12]
  development of ALI after hemorrhage: inhibited and reduced
[13]
  survival after lethal HS: improves survival
